{
  "source": "patent US8821944B1",
  "about": "“Polymorph compositions, methods of making, and uses thereof” (Edge Therapeutics, Inc., priority 2013, dated 2014)",
  "origin": "cited, not measured here",
  "key": {"[1]": {"details": "at +25° C. and +37° C."}, "[2]": {"details": "at +25° C. and +37° C.", "remark": "listed apart in the source"}},
  "data": [
    {"smiles": "COCCOC(=O)C1=C(C)NC(C)=C(C(=O)OC(C)C)C1c1cccc([N+](=O)[O-])c1", "note": "(centres unmarked) [Form II]", "values": [
      {"measurement": "solubility compared to Form I", "setting": "[1]", "result": "lower solubility"},
      {"measurement": "stability compared to Form I", "setting": "[2]", "result": "higher stability"}
    ]}
  ]
}
